This is an account of results in BindingDB's records for doi:10.1016/j.bmcl.2007.01.039 (Merck Research Laboratories, 2007).

pIC50: −log10 of the molar value.

Broadly, the pIC50 is −log10 of the IC50, conventionally taken in molar units. Higher therefore signals a low IC50.

This assay addresses Dipeptidyl peptidase 2 (Homo sapiens, UniProt Q9UHL4). The experiment in a line: Dipeptidyl Peptidase Inhibition Assay.

`C[C@@H]1C(=O)N[C@@H](C(F)(F)F)CCN1C(=O)C[C@H](N)Cc1cc(F)c(F)cc1F` [(3R,7R)-4-[(3R)-3-amino-4-(2,4,5-trifluorophenyl)butanoyl]-3-methyl-7-(trifluoromethyl)-1,4-diazepan-2-one] had a pIC50 below 4.00. Compound `C[C@@H]1C(=O)NCCCN1C(=O)C[C@H](N)Cc1cc(F)ccc1F` [(3R)-4-[(3R)-3-amino-4-(2,5-difluorophenyl)butanoyl]-3-methyl-1,4-diazepan-2-one] gave a pIC50 below 4.00.
